According to patent US7132453B2, “Method of using prostacyclin to treat respiratory syncytial virus infections” (Vanderbilt University, priority 2002, dated 2006):
Entries after “also recorded” stand apart in the source; their conditions may differ. Read-outs that look alike come from different tables or passages of the source.

Assays:
[1] = cited from earlier work
[2] = in vivo; cited from earlier work
[3] = tested on: RSV strain A; assay: UT-15 by subcutaneous micro-infusion pump in RSV-infected BALB/c mice (mortality, body weight); assay type: in vivo; conditions: for survival percentage: FIG. 7
Text: The genetically altered mice and control mice were anesthetized with ketamine and xylazine, as described in Peebles, et al., 2001, J. Med. Virol. 63:178–88, which is incorporated herein by reference. The mice were intranasally infected with 10^7 pfu of RSV strain A. American Type Culture Collection, Manassas, Va.
In order to insert a micro-infusion pump into a mouse, the skin of the back, slightly posterior to the scapulae will be shaved and washed with ethanol. Subcutaneous implantation is technically the easiest and least invasive procedure. The usual site for subcutaneous implantation of Azlet pumps in mice is on the back, slightly posterior to the scapulae. Pumps are commercially available at: Alzet Osmotic Pumps, Durect Corporation, P.O. Box 530, Cupertino, Calif. 95015-0530. Absorption of the compound placed in the pump by local capillaries results in systemic administration. For subcutaneous pump implantation, the following steps are performed:
A micro-infusion pump system was inserted into a mouse as previously described in Example 8. After the micro-infusion pump was in place, UT-15 was administered subcutaneously for two weeks starting on the day prior to infection. The BALB/c mice received either different concentrations of UT-15 or water only, as indicated below. BALB/c mice were infected with RSV strain A as described in Example 1. There were 8–10 mice per group. The weight of each mouse was monitored on a daily basis. The mice were put on a scale to measure their weight.
Mice having received micro-infusion pumps received infusion of either water of some concentration of UT-15 for a period of 2 weeks after starting the day prior to RSV infection. […] Also shown are the percentage of body weight for each of the animals on each given day for the other animals either receiving no UT-15 or other concentrations of UT-15.

[4] = tested on: vaccinia virus; conditions: BALB/c mice; cited from earlier work
[5] = tested on: RSV; assay: Indomethacin in drinking water in RSV-infected BALB/c mice (weight loss curve); assay type: in vivo
Text: Genetically altered mice having the BALB/c background were obtained from Charles Rivers Laboratories, 251 Ballardvale Street,. Wilmington, Mass. 01887-1000. Modification to the level of PGI2 was accomplished by introducing indomethacin to the BALB/c mice. Indomethacin is a drug that is used to treat arthritis and other rheumatologic conditions and inhibits the activity of both COX-1 and COX-2 such that the formation of prostanoids, specifically PGI2, are not produced. Indomethacin is given to the mice in their drinking water in order to block the cyclooxygenase enzymes in order to determine the effect of the cyclooxygenase pathway on the immune response to RSV infection. Indomethacin is commercially available from Sigma, Inc. St. Louis, Mo.
As best seen in FIG. 4, mice treated with indomethacin have a much difference weight loss curve. Within the experiment, BALB/c mice were provided water having indomethacin, 30 micrograms/ml.
Female BALB/c mice that are 8–10 weeks of age and that weigh approximately 20 grams were used to determine the amount of weight loss that results from an RSV infection. The BALB/c mice were infected with RSV strain A as described in Example 1. Subsequent to infection, the mice received water in their drinking bottles to drink during the course of an infection. On day 5, the mice started to lose weight and the peak of illness as measured by maximal weight loss occurred on day 9. […] These mice then recovered and were fully back to baseline by day 19 after infection. FIG. 3 is an example of a typical body weight curve that occurs with RSV induced illness. On the Y-axis is the body weight as a percentage of the pre-infection weight. This curve is very reproducible although factors such as the strain of the mouse and the viral load administered can alter the severity and duration of illness.

[6] = indomethacin 30 micrograms/ml in drinking water, FIG. 4

## CCCCC[C@H](O)/C=C/[C@@H]1[C@H]2C/C(=C/CCCC(=O)O)O[C@H]2C[C@H]1O [Epoprostenol]
[1]; in vivo, iv
  side effects: flushing, headache, chest pain, sweating, flu-like symptoms, nausea, vomiting, and systemic hypotension

## CC#CCC(C)[C@H](O)/C=C/[C@@H]1[C@H]2C/C(=C/CCCC(=O)O)C[C@H]2C[C@H]1O (stereo partly drawn) [Iloprost]
[1]; iloprost: long-term, pulmonary hypertension patients, UT-15: patients treated for another disease
  safety of administration to patients: safe
[2]
  share of oral iloprost reaching the systemic circulation: less than 20%

## CCCCC[C@H](O)CC[C@@H]1[C@H]2Cc3cccc(OCC(=O)O)c3C[C@H]2C[C@H]1O [UT-15]
[1]; in vivo
  safety of administration to patients: safely used
[3]; FIG. 7 legend and summary text, 2.0 and 20 ng/kg/min vs none
  protection against RSV-induced mortality (percent survival): protects against RSV-induced mortality; also recorded: increase percentage of survival
[3]; FIG. 8 legend, 20, 30, 40 ng/kg/min vs none
  protection against RSV-induced illness (percent of body weight): protects against RSV-induced illness
[3]; UT-15 2.0 ng/kg/min
  recovery period of the surviving mice vs mice without UT-15: the recovery period was quicker
[3]; UT-15 2.0 ng/kg/min subcutaneous for two weeks from the day prior to infection
  survival percentage: next best survival percentage
[3]; UT-15 20 ng/kg/min subcutaneous for two weeks from the day prior to infection
  survival percentage: best survival percentage
[3]; UT-15 20 ng/kg/min, compared with 0, 30 and 40 ng/kg/min, FIG. 8
  recovery period for body weight: quickest recovery period for body weight

## CC(=O)Oc1ccccc1C(=O)O [aspirin]
[4]
  mortality from vaccinia virus infection vs non-treated mice: marked increase in mortality

## COc1ccc2c(c1)c(CC(=O)O)c(C)n2C(=O)c1ccc(Cl)cc1 [indomethacin]
[5]; FIG. 4 legend
  effect on RSV-induced illness: exacerbates and delays recover from RSV-induced illness
[5]; [6]
  day of peak illness (weight loss): 11 days
  recovery of body weight after RSV infection: did not recover their weight
[4]
  mortality from vaccinia virus infection vs non-treated mice: marked increase in mortality
